The subject of test [1] is HUFEC. Description: Cell Migration Assay (CMA) Test, inhibitory rate with control (-) correction. Particulars: Homo sapiens, 24 h, 125 μl of 0.32 mM sample solution in 4.0 ml medium, 80% or more = remarkable. It is filed as cell-based, human. The method, then: (§1) Samples were prepared using the present compounds of Compound No. I-60 through I-315. More specifically, 32 μl of a 20 mM sample solution dissolved in dimethylsulfoxide (DMSO) were removed and brought to a volume of 1 ml with phosphate-buffered saline (PBS) to prepare a sample solution having a concentration of 0.32 mM (containing 3.2% DMSO).
After disseminating the 7th subculture of […] obtained from the first generation at 4 ml/well (3.0×10^5 cells/well) in a collagen-coated 6-well plate (NUNC), the cells were cultured for 48 hours at 37° C. in the presence of 5% CO2. The cells reached nearly a completely confluent state as a result of this culturing.
A double-edged, disposable razor blade was divided into four sections, of which one of those sections was pinched between a pair of forceps. Using this piece of razor blade, the cell surface in the above confluent state was scraped off.
After washing the surface of the wells from which the cells had been scraped off with medium, 4.0 ml of fresh M199 (2+) medium were placed in the wells. 4.0 ml of M199 medium were added to the control (-) well.
125 μl of sample solution (0.32 mM, containing 3.2% dimethylsulfoxide) were added to the wells.
125 μl of PBS solution containing 3.2% dimethylsulfoxide were added to the control wells instead of sample. The cells were cultured for 24 hours at 37° C. in the presence of 5% CO2. After discarding the culture liquid, the cells were fixed for 30 minutes with methanol. Next, after […] the cells for 4 hours with Giemsa stain, the plates were washed with tap water and air dried.
Measurement of cell migration was performed by microscopically counting the number of cells that had newly migrated within the range of a 1 mm×1 mm block. […] The total number of cells counted in blocks 1 through 5 were then totaled to determine the overall total number of cells. Four fields were counted for each well.
Evaluation was performed determining the cell migration inhibitory rate (%) according to the following equation.
Inhibitory rate=100-((number of migrating cells to which sample was added-number of migrating cells of control (-))×100/(number of migrating cells of control (+)-number of migrating cells of control (-)))
If this inhibitory rate was 80% or more, cell migration was assessed as being remarkable.

In test [2] the test system is human umbilical-vein endothelial cells (HUVEC). Put plainly: Tube Formation Assay (TFA) Test, HUVEC in collagen gel. The format is cell-based. Particulars: Tables 75-83, 0.32 mM sample solution, method as for Compounds 1 through 60; for inhibition at 320 µM (stock): Homo sapiens, HUVEC, read-out: TFA Inhibition rate (%). On the procedure:
Furthermore, the sample liquids of compounds used in the CPA and CMA tests were prepared in the manner described below. Firstly, after weighing out each compound, a calculated amount of DMSO was added. After dissolving the compound in the DMSO, phosphate buffered physiological saline (PBS (-)) was added to bring the sample concentration to 1 mg/ml in PBS (-). The amount of DMSO used to dissolve the compounds was adjusted in advance to that the concentration of DMSO at that time was 5%. The resulting liquids were diluted 10-fold with 5% DMSO-PBS (-) solution to prepare sample solutions having a concentration of 0.1 mg/ml. In the TFA test, 320 μl of the prepared 1 mg/ml sample solutions were removed followed by addition of 680 μl of PBS (-) to prepare samples having a concentration of […]. Moreover, 100 μl of this solution was removed followed by addition of 900 μl of PBS (-) to dilute 10-fold and prepare samples having a concentration of 1 μg/ml. P [Cell Proliferation Assay (CPA) Test]
To begin with, 8 volumes of Type 1-A cell matrix (manufactured by Gibco Co.), 1 volume of 10×M119, and 1 volume of reconstituted buffer [200 mM HEPES, 0.05 N sodium hydroxide, 260 mM sodium bicarbonate] were slowly mixed under cooling with ice while avoiding bubbling to form a collagen gel. This collagen gel was distributed in a NUNC 24-well plate at 310 μl/well followed by allowing to stand undisturbed for 2 hours at 37° C. to solidify the gel.
Next, the 7th subculture of HUVEC (1×10^5 cells/ml) obtained from the first generation in the same manner as above were disseminated at 500 μl/well. The cells were cultured for 2 hours at 37° C. to allow the cells to make contact with the collagen. After then removing the medium by aspiration, 50 μl of sample solution were added followed by addition of 310 μl/well of freshly prepared collagen gel and culturing for 1 hour and 10 minutes at 37° C. to solidify the double-layer gel.
1 ml/well of M-199 medium containing 20% FCS, 30 ng /ml of b-FGF and 0.1 μM PMA were added to the wells followed by culturing for 20 hours at 37° C. in the presence of 5% CO2.
Measurement of the lengths of the formed tubes was performed using the public domain NIH Image with a computer.
Evaluation was performed by calculating the inhibition rate (%) of tube formation according to the following formula.
Inhibition rate (%)=100-((formed tube length in presence of sample-formed tube length in presence of control (-))×100/(formed tube length in presence of control (+)-formed tube length in presence of control (-)))
as §1
The testing method used for these compounds was the same as that used for the compounds of Compound No. 1 through 60 previously described.

Results on 34 molecules are retold here after patent US6225478A, “Iridoid derivatives and neovascularization inhibitors containing the same as active ingredient” (Tsumura & Co., priority 1999, dated 2001).

The term inhibition denotes the change of the read-out against control, counted positive when it falls.

The structures appear in SMILES notation.

For `COC(=O)C1=CO[C@@H](OC(=O)N2CC=CCC2)[C@H]2[C@@H]1CC[C@@H]2C` [I-194], the inhibition at 320 µM (stock) is 5.5% in test [1] and 3% in test [2].

Consider `COC(=O)C1=CO[C@@H](OC(=O)Nc2ccc(Cl)cc2C(F)(F)F)[C@H]2[C@@H]1CC[C@@H]2C` [I-265], for which the inhibition at 320 µM (stock) was determined as 6.3% in test [1] and 3.3% in test [2].

As for `COC(=O)C1=CO[C@@H](OC(=O)NCCCCl)[C@H]2[C@@H]1CC[C@@H]2C` [I-244], the results for the inhibition at 320 µM (stock) in test [1] and in test [2] were 19.5% and 5.2%, respectively.

On to `COC(=O)C1=CO[C@@H](OC(=O)NCCO)[C@@H]2C(C)=CC[C@H]12` [I-84], for which the inhibition at 320 µM (stock) in test [1] came out at 8.8%; in test [2] it was 21.9%.

As for `COC(=O)C1=CO[C@@H](OC(=O)N2CCN(c3ccccc3F)CC2)[C@@H]2C(C)=CC[C@H]12` [I-149], the figures for the inhibition at 320 µM (stock) in test [1] and in test [2] were 7.5% and 8.7%, respectively.

`CCCCCC[C@]12O[C@H]1C[C@@H]1C(C(=O)OC)=COC[C@@H]12` [I-298]: the inhibition at 320 µM (stock) stood at 7.8% in test [1] and 9.5% in test [2].

`CNC(=O)O[C@@H]1OC=C(C(=O)O)[C@H]2CC=C(C)[C@@H]12` [I-307] gave an inhibition at 320 µM (stock) in test [1] of 52.5%. Moreover, the “TFA (inhibition rate, %)” value in test [2] was determined as 50.2%.

Turning to `COC(=O)C1=CO[C@@H](OC(=O)NCCCN(C)C)[C@H]2[C@@H]1CC[C@@H]2C` [I-210], the inhibition at 320 µM (stock) in test [1] worked out at 8%; in test [2] it was 8.9%.

`COC(=O)C1=CO[C@@H](OC(=O)NCCN2CCCCC2)[C@H]2[C@@H]1CC[C@@H]2C` [I-223]: the inhibition at 320 µM (stock) in test [1] worked out at 18.8%; in test [2], 17.9%.

On to `CCCN(C)C(=O)O[C@@H]1OC=C(C(=O)OC)[C@H]2CC[C@H](C)[C@@H]12` [I-193], for which the inhibition at 320 µM (stock) in test [1] is 5.3%; in test [2] it was 6.7%.

With `COC(=O)C1=CO[C@@H](OC(=O)NCc2nc3ccccc3[nH]2)[C@H]2[C@@H]1CC[C@@H]2C` [I-252], the results for the inhibition at 320 µM (stock) in test [1] and in test [2] were 8.2% and 5.4%, respectively.

`CCOC(=O)CCCNC(=O)O[C@@H]1OC=C(C(=O)OC)[C@H]2CC[C@H](C)[C@@H]12` [I-237]: the inhibition at 320 µM (stock) worked out at 6.9% in test [1] and 7.8% in test [2].

As for `COC(=O)C1=CO[C@@H](OC(=O)NCC#N)[C@H]2[C@@H]1CC[C@@H]2C` [I-176], the inhibition at 320 µM (stock) in test [1] is 11.7%; in test [2] it was 2.2%.

Consider `COC(=O)C1=CO[C@@H](OC(=O)N2CCN(CCO)CC2)[C@H]2[C@@H]1CC[C@@H]2C` [I-180], for which the results for the inhibition at 320 µM (stock) in test [1] and in test [2] were 50% and 7.7%, respectively.

Turning to `COC(=O)C1=CO[C@@H](OC(=O)NCCc2ccc(O)cc2)[C@@H]2C(C)=CC[C@H]12` [I-100], the results for the inhibition at 320 µM (stock) in test [1] and in test [2] were 21.9% and 23.3%, respectively.

As to `COC(=O)C1=CO[C@@H](OC(=O)NCc2ccc(F)cc2F)[C@@H]2C(C)=CC[C@H]12` [I-77], the inhibition at 320 µM (stock) in test [1] amounted to 5.9%; in test [2] it was 7.2%.

Consider `COC(=O)C1=CO[C@@H](OC(=O)NCc2ccccc2F)[C@@H]2C(C)=CC[C@H]12` [I-126], for which the inhibition at 320 µM (stock) in test [1] is 6.5%; in test [2] it was 4%.

As for `COC(=O)C1=CO[C@@H](OC(=O)N(C)Cc2ccccc2)[C@H]2[C@@H]1CC[C@@H]2C` [I-184], the results for the inhibition at 320 µM (stock) in test [1] and in test [2] were 37.1% and 7.4%, respectively.

Consider `COC(=O)C1=CO[C@@H](OC(=O)NC2CCCCCC2)[C@@H]2C(C)=CC[C@H]12` [I-103], for which the inhibition at 320 µM (stock) in test [1] is 5.1%; in test [2], 8.3%.

On to `COC(=O)C1=CO[C@@H](OC(=O)NCc2ccc(Br)cc2)[C@@H]2C(C)=CC[C@H]12` [I-143], for which the inhibition at 320 µM (stock) in test [1] worked out at 5.9%; in test [2], 8.1%.

For the molecule `COC(=O)C1=CO[C@@H](OC(=O)Nc2ccc(OC)cc2)[C@@H]2C(C)=CC[C@H]12` [I-161], the results for the inhibition at 320 µM (stock) in test [1] and in test [2] were 14.4% and 8.2%, respectively.

For the molecule `COC(=O)C1=CO[C@@H](OC(=O)N2CCCCC2)[C@H]2[C@@H]1CC[C@@H]2C` [I-216], the inhibition at 320 µM (stock) came to 9.4% in test [1] and 3.7% in test [2].

Regarding `COC(=O)C1=CO[C@@H](OC(=O)NC(CO)CO)[C@@H]2C(C)=CC[C@H]12` [I-147], the inhibition at 320 µM (stock) in test [1] turned out to be 41%; in test [2], 10.3%.

As to `CCCCCCNC(=O)O[C@@H]1OC=C(C(=O)OC)[C@H]2CC=C(C)[C@@H]12` [I-72], the inhibition at 320 µM (stock) in test [1] is 42.9%; in test [2], 5.9%.

For the molecule `COC(=O)C1=CO[C@@H](OC(=O)NCC(OC)OC)[C@@H]2C(C)=CC[C@H]12` [I-96], the inhibition at 320 µM (stock) in test [1] was found to be 5.9%; in test [2], 19.7%.

For the molecule `COC(=O)C1=CO[C@@H](OC(=O)NCCS)[C@@H]2C(C)=CC[C@H]12` [I-134], the inhibition at 320 µM (stock) in test [1] was 7.1%; in test [2], 8.6%.

Turning to `CCOc1ccccc1N1CCN(C(=O)O[C@@H]2OC=C(C(=O)OC)[C@H]3CC=C(C)[C@@H]23)CC1` [I-141], the values for the inhibition at 320 µM (stock) in test [1] and in test [2] were 12.5% and 23.1%, respectively.

For the molecule `COC(=O)C1=CO[C@@H](OC(=O)Nc2ccccc2F)[C@H]2[C@@H]1CC[C@@H]2C` [I-257], the inhibition at 320 µM (stock) in test [1] came out at 8%; in test [2], 3.5%.

On to `COCCCNC(=O)O[C@@H]1OC=C(C(=O)OC)[C@H]2CC[C@H](C)[C@@H]12` [I-226], for which the inhibition at 320 µM (stock) came out at 17.2% in test [1] and 15.3% in test [2].

On to `COC(=O)C1=COC[C@@H]2C(CSc3nc4ccccc4s3)=CC[C@H]12` [I-292], for which the figures for the inhibition at 320 µM (stock) in test [1] and in test [2] were 57.9% and 23.5%, respectively.

Take `COC(=O)C1=CO[C@@H](OC(=O)NCCc2cccs2)[C@@H]2C(C)=CC[C@H]12` [I-92]: the inhibition at 320 µM (stock) in test [1] came out at 8.1%; in test [2] it was 15.2%.

Turning to `C=CCNC(=O)O[C@@H]1OC=C(C(=O)OC)[C@H]2CC[C@H](C)[C@@H]12` [I-228], the inhibition at 320 µM (stock) in test [1] was 7.2%; in test [2] it was 2.7%.

Turning to `CNC(=O)OCCN1CCN(C(=O)C2=COC[C@@H]3[C@H](C)CC[C@H]23)CC1` [I-306], the inhibition at 320 µM (stock) in test [1] was 25.1%; in test [2] it was 22.6%.

As to `COC(=O)C1=CO[C@@H](OC(=O)Nc2ccc(OC)cc2)[C@H]2[C@@H]1CC[C@@H]2C` [I-263], the inhibition at 320 µM (stock) in test [1] amounted to 7.2%; in test [2], 5.5%.
